Experimental data as given in patent US10428104B2, “Substituted nucleoside derivatives useful as anticancer agents” (Pfizer Inc., priority 2015, dated 2019).

These compounds were tested against PRMT5/MEP50 protein complex (Homo sapiens (Human), UniProt O14744) (assay: PRMT5 biochemical assay (3H-SAM methylation of H4(1-21) peptide, filter plate scintillation counting)). Conditions: PRMT5 enzyme inhibition; 10 nM PRMT5/MEP50 complex, 200 nM H4(1-21) peptide, 1 uM SAM, 25 minute incubation at room temperature.
Chain of PRMT5/MEP50 protein complex (O14744 other isoform, or with tags, fused parts or gaps): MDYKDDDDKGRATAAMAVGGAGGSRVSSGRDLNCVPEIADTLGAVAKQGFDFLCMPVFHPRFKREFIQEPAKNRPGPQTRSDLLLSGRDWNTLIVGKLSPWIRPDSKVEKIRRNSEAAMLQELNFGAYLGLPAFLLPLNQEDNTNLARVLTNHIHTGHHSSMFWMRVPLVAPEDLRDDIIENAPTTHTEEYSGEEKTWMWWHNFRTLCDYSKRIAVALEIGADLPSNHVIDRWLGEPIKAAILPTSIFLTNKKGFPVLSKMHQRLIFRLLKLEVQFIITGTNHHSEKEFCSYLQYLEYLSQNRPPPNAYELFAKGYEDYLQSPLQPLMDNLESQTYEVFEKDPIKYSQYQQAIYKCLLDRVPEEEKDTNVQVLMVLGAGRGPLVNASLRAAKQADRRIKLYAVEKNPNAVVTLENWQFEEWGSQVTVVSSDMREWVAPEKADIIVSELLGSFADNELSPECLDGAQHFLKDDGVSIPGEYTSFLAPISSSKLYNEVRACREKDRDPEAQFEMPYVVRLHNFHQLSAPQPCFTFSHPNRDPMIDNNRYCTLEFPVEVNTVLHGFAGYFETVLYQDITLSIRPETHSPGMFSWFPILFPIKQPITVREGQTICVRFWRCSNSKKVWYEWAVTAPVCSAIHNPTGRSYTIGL
Chain of PRMT5/MEP50 protein complex (Q9BQA1 whole entry partner): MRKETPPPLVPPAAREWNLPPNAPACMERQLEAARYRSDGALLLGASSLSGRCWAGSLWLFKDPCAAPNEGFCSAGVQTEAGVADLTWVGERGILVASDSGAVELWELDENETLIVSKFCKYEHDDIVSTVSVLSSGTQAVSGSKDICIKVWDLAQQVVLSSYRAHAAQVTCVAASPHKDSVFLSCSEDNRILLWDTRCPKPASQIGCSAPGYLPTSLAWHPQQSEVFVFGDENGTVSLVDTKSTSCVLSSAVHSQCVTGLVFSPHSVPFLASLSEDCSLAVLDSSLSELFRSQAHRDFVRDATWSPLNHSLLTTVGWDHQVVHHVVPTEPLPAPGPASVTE
Method: Following dilution, 1 ul was added to an empty 96-well microtiter plate. PRMT5/MEP50 protein complex was combined with H4(1-21) peptide ([…]) in PRMT5 assay buffer (50 mM Tris pH 8.5, 50 mM NaCl, 5 mM MgCl2, 1 mM EDTA, 1 mM TCEP) and 44 ul was added to the microtiter plate containing compound. S-Adenosyl-L-methionine (SAM) was prepared by combining ^3H labelled SAM with unlabelled SAM in PRMT5 assay buffer such that the final SAM concentration was 10 uM and the specific activity was 0.2 uCi/ul. The reaction was initiated by adding 5 ul of SAM stock to the microtiter plate. The final reaction conditions were 10 nM PRMT5/MEP50 complex, 200 nM peptide and 1 uM SAM. Following a 25 minute incubation at room temperature, the reaction was stopped with the addition of 100 uL of 20% TCA. The 3H-peptide product was captured using a 96-well filter plate (MSIPN4B, Millipore) and washed 5 times with PBS buffer. Scintillation fluid (100 ul) was added to the dried filter plate and counted in a liquid scintillation counter. IC50 values were determined by fitting the data to the standard 4-parameter dose response equation using Pfizer proprietary software.
In the final construct PRMT5 ORF was under control of polyhedrin promoter (polH) while MEP50 ORF was under control of p10 promoter.
Viruses were generated using standard Bac-to-Bac viral generation protocols (Life Technologies) and amplified to high-titer passage two (P2) stocks. Protein over expression was conducted in exponentially growing Sf21 cells infected at 2×106 with P2 viral stock at MOI=1 of PRMT5-Mep50 dual construct virus and Mep50 construct virus at 1:1 ratio. The co-expression protocol was used to supplement additional Mep50 for FlagPRMT5-Mep50 heterodimer formation. Cells were harvested at 72 h post infection by centrifugation and frozen pellet was stored at −80° C.
FlagPRMT5-Mep50 complex was purified from cell lysate using Flag affinity chromatography. Cell were lyzed in 50 mM Tris 7.5, 200 mM NaCl, 10% glycerol, 0.25 mM TCEP supplemented with EDTA-free protease inhibitor cocktail (Roche). 1.5 ml of lysis buffer was added per 1 g of frozen pellet. The clarified lysate was obtained by centrifugation of cell lysate at 10,000 g for 1 h at 4 C. 5 ml of Anti-FLAG M2 Agarose (Sigma) […] was added to the clarified lysate to isolate FlagPRMT5-Mep50. Following batch binding for 3 h at 4 C, Flag resin bound to FlagPRMT5-Mep50 washed with 20 column volumes (CV) of 50 mM Tris 7.5, 200 mM NaCl, 10% glycerol, 0.25 mM TCEP followed by elution of FlagPRMT5-Mep50 complex using 3 CV of 50 mM Tris 7.5, 200 mM NaCl, 10% glycerol, 0.25 mM TCEP supplemented with 200 ug/ml of FLAG Peptide ([…]). […] Peak fractions containing FlagPRMT5-Mep50 complex were concentrated to 1.6 mg/ml, flash frozen in small aliquots using liquid nitrogen and stored at −80° C.

Question: Which IC50 does the source give for Cc1ncnc2c1ccn2[C@@H]1O[C@@H](c2ccn(C)n2)[C@@H](O)[C@H]1O [Example 77, (2S,3S,4R,5R)-2-(1-methyl-1H-pyrazol-3-yl)-5-(4-methyl-7H-pyrrolo[2,3-d]pyrimidin-7-yl)tetrahydrofuran-3,4-diol] here?
Answer: The IC50 was 24400 nM.

Question: How did the IC50 turn out when Cc1ncnc2c1ccn2[C@@H]1O[C@H]([C@@H](N)c2ccc(F)c(F)c2)[C@@H](O)[C@H]1O [Example 95, (2R,3S,4R,5R)-2-((S)-amino(3,4-difluorophenyl)methyl)-5-(4-methyl-7H-pyrrolo[2,3-d]pyrimidin-7-yl)tetrahydrofuran-3,4-diol] was run?
Answer: Its IC50 is 150 nM.

Question: For Cc1nc(N)nc2c1ccn2[C@@H]1O[C@H]([C@@H](O)c2ccc(F)cc2)[C@@H](O)[C@H]1O [Example 65, (2R,3R,4S,5R)-2-(2-amino-4-methyl-7H-pyrrolo[2,3-d]pyrimidin-7-yl)-5-((S)-(4-fluorophenyl)(hydroxy)methyl)tetrahydrofuran-3,4-diol], which IC50 is on record?
Answer: The IC50 was 488 nM.

Question: Which IC50 does the source give for Cc1ncnc2c1ccn2[C@@H]1O[C@H]([C@H](O)Cc2ccccc2)[C@@H](O)[C@H]1O [Example 28, (2R,3S,4R,5R)-2-((R)-1-hydroxy-2-phenylethyl)-5-(4-methyl-7H-pyrrolo[2,3-d]pyrimidin-7-yl)tetrahydrofuran-3,4-diol] here?
Answer: The IC50 was 11200 nM.

Question: With Cc1ncnc2c1ccn2[C@@H]1O[C@H](Cc2ccc(F)cc2)[C@@H](O)[C@H]1O [Example 100, (2R,3S,4R,5R)-2-(4-fluorobenzyl)-5-(4-methyl-7H-pyrrolo[2,3-d]pyrimidin-7-yl)tetrahydrofuran-3,4-diol] as the compound, how does the IC50 read?
Answer: Its IC50 is 90 nM.

Question: Cc1ncnc2c1ccn2[C@@H]1O[C@@H](c2ccccc2)[C@@H](O)[C@H]1O [Example 66, (2R,3R,4S,5S)-2-(4-methyl-7H-pyrrolo[2,3-d]pyrimidin-7-yl)-5-phenyltetrahydrofuran-3,4-diol] was tested. Which IC50 did it give?
Answer: The IC50 was 1990 nM.

Question: For O[C@@H]1[C@H](O)[C@@H]([C@H](O)c2ccc(F)c(F)c2)O[C@H]1n1ccc2c(CF)ncnc21 [Example 107, (2R,3S,4R,5R)-2-((R)-(3,4-difluorophenyl)(hydroxy)methyl)-5-(4-(fluoromethyl)-7H-pyrrolo[2,3-d]pyrimidin-7-yl)tetrahydrofuran-3,4-diol], which IC50 is on record?
Answer: Its IC50 is 7 nM.

Question: With Cc1ncnc2c1ccn2[C@@H]1O[C@@H]([C@@H](O)c2ccc(F)cc2)[C@@H](O)[C@H]1O [Example 75, (2S,3S,4R,5R)-2-((S)-(4-fluorophenyl)(hydroxy)methyl)-5-(4-methyl-7H-pyrrolo[2,3-d]pyrimidin-7-yl)tetrahydrofuran-3,4-diol] as the compound, how does the IC50 read?
Answer: The IC50 was 21700 nM.

Question: With CC[C@H](O)[C@H]1O[C@@H](n2cnc3c(N)ncnc32)[C@H](O)[C@@H]1O [Example 4, (2R,3R,4S,5R)-2-(6-amino-9H-purin-9-yl)-5-((S)-1-hydroxypropyl)tetrahydrofuran-3,4-diol] as the compound, how does the IC50 read?
Answer: Its IC50 is 44100 nM.

Question: For Cc1ncnc2c1ccn2[C@@H]1O[C@H]([C@H](O)c2ccc(S(C)(=O)=O)cc2)[C@@H](O)[C@H]1O [Example 20, (2R,3S,4R,5R)-2-((R)-hydroxy(4-(methylsulfonyl)phenyl)methyl)-5-(4-methyl-7H-pyrrolo[2,3-d]pyrimidin-7-yl)tetrahydrofuran-3,4-diol], which IC50 is on record?
Answer: The IC50 was 54 nM.

Question: With Cc1ncnc2c1ccn2[C@@H]1O[C@@H]([C@@H](O)c2ccccc2)[C@@H](O)[C@H]1O [Example 73, (2S,3S,4R,5R)-2-((S)-hydroxy(phenyl)methyl)-5-(4-methyl-7H-pyrrolo[2,3-d]pyrimidin-7-yl)tetrahydrofuran-3,4-diol] as the compound, how does the IC50 read?
Answer: The IC50 was 23300 nM.

Question: How did the IC50 turn out when C[C@@](O)(c1ccc(F)c(F)c1)[C@H]1O[C@@H](n2ccc3c(N)ncnc32)[C@H](O)[C@@H]1O [Example 103, (2R,3R,4S,5S)-2-(4-amino-7H-pyrrolo[2,3-d]pyrimidin-7-yl)-5-((R)-1-(3,4-difluorophenyl)-1-hydroxyethyl)tetrahydrofuran-3,4-diol] was run?
Answer: Its IC50 is 2 nM.

Question: For Cc1ncnc2c1ccn2[C@@H]1O[C@H]([C@H](O)C2CCC2)[C@@H](O)[C@H]1O [Example 52, (2R,3S,4R,5R)-2-((R)-cyclobutyl(hydroxy)methyl)-5-(4-methyl-7H-pyrrolo[2,3-d]pyrimidin-7-yl)tetrahydrofuran-3,4-diol], which IC50 is on record?
Answer: Its IC50 is 1260 nM.

Question: Which IC50 does the source give for Cc1ncnc2c1ccn2[C@@H]1OC(C(F)(F)c2ccc(F)cc2)[C@@H](O)[C@H]1O (stereo partly drawn) [Example 59, (3S,4R,5R)-2-(difluoro(4-fluorophenyl)methyl)-5-(4-methyl-7H-pyrrolo[2,3-d]pyrimidin-7-yl)tetrahydrofuran-3,4-diol] here?
Answer: Its IC50 is 491 nM.

Question: Cc1ncnc2c1ccn2[C@@H]1O[C@H](Cn2cccn2)[C@@H](O)[C@H]1O [Example 58, (2R,3S,4R,5R)-2-((1H-pyrazol-1-yl)methyl)-5-(4-methyl-7H-pyrrolo[2,3-d]pyrimidin-7-yl)tetrahydrofuran-3,4-diol] was tested. Which IC50 did it give?
Answer: The IC50 was 1980 nM.

Question: For Cc1ncnc2c1ccn2[C@@H]1O[C@@H](c2ccn[nH]2)[C@@H](O)[C@H]1O [Example 72, (2R,3R,4S,5S)-2-(4-methyl-7H-pyrrolo[2,3-d]pyrimidin-7-yl)-5-(1H-pyrazol-5-yl)tetrahydrofuran-3,4-diol], which IC50 is on record?
Answer: Its IC50 is 2030 nM.

Question: How did the IC50 turn out when Cc1ncnc2c1ccn2[C@@H]1O[C@H]([C@@H](O)Cc2ccccc2)[C@@H](O)[C@H]1O [Example 29, (2R,3S,4R,5R)-2-((S)-1-hydroxy-2-phenylethyl)-5-(4-methyl-7H-pyrrolo[2,3-d]pyrimidin-7-yl)tetrahydrofuran-3,4-diol] was run?
Answer: Its IC50 is 200000 nM.

Question: Which IC50 does the source give for Cc1ncnc2c1ccn2[C@@H]1O[C@H]([C@H](O)c2ccc3occ(C(F)F)c3c2)[C@@H](O)[C@H]1O [Example 21, (2R,3S,4R,5R)-2-((R)-(3-(difluoromethyl)benzofuran-5-yl)(hydroxy)methyl)-5-(4-methyl-7H-pyrrolo[2,3-d]pyrimidin-7-yl)tetrahydrofuran-3,4-diol] here?
Answer: Its IC50 is 33 nM.

Question: Which IC50 does the source give for Cc1ncnc2c1ccn2[C@@H]1O[C@H]([C@@H](F)c2ccc(F)c(F)c2)[C@@H](O)[C@H]1O [Example 93, (2S,3S,4R,5R)-2-((S)-(3,4-difluorophenyl)fluoromethyl)-5-(4-methyl-7H-pyrrolo[2,3-d]pyrimidin-7-yl)tetrahydrofuran-3,4-diol] here?
Answer: The IC50 was 299 nM.

Question: With Nc1ncnc2c1c(F)cn2[C@@H]1O[C@@H](c2ccccc2)[C@@H](O)[C@H]1O [Example 67, (2R,3R,4S,5S)-2-(4-amino-5-fluoro-7H-pyrrolo[2,3-d]pyrimidin-7-yl)-5-phenyltetrahydrofuran-3,4-diol] as the compound, how does the IC50 read?
Answer: Its IC50 is 1560 nM.

Question: Cc1ncnc2c1ccn2[C@@H]1O[C@@H]([C@H](O)c2ccccc2)[C@@H](O)[C@H]1O [Example 74, (2S,3S,4R,5R)-2-((R)-hydroxy(phenyl)methyl)-5-(4-methyl-7H-pyrrolo[2,3-d]pyrimidin-7-yl)tetrahydrofuran-3,4-diol] was tested. Which IC50 did it give?
Answer: The IC50 was 3140 nM.

Question: Which IC50 does the source give for Cc1ncnc2c1ccn2[C@@H]1O[C@H]([C@H](O)C(F)(F)F)[C@@H](O)[C@H]1O [Example 56, (2R,3R,4S,5S)-2-(4-methyl-7H-pyrrolo[2,3-d]pyrimidin-7-yl)-5-((S)-2,2,2-trifluoro-1-hydroxyethyl)tetrahydrofuran-3,4-diol] here?
Answer: The IC50 was 11 nM.

Question: Which IC50 does the source give for Cc1ncnc2c1ccn2[C@@H]1O[C@H]([C@H](O)CCc2ccccc2)[C@@H](O)[C@H]1O [Example 30, (2R,3S,4R,5R)-2-((R)-1-hydroxy-3-phenylpropyl)-5-(4-methyl-7H-pyrrolo[2,3-d]pyrimidin-7-yl)tetrahydrofuran-3,4-diol] here?
Answer: The IC50 was 752 nM.

Question: For Cc1ncnc2c1ccn2[C@@H]1O[C@H]([C@H](O)c2ccco2)[C@@H](O)[C@H]1O [Example 54, (2S,3S,4R,5R)-2-((S)-furan-2-yl(hydroxy)methyl)-5-(4-methyl-7H-pyrrolo[2,3-d]pyrimidin-7-yl)tetrahydrofuran-3,4-diol], which IC50 is on record?
Answer: Its IC50 is 24 nM.

Question: C[C@](O)(c1ccc(F)c(F)c1)[C@H]1O[C@@H](n2ccc3c(N)ncnc32)[C@H](O)[C@@H]1O [Example 104, (2R,3R,4S,5S)-2-(4-amino-7H-pyrrolo[2,3-d]pyrimidin-7-yl)-5-((S)-1-(3,4-difluorophenyl)-1-hydroxyethyl)tetrahydrofuran-3,4-diol] was tested. Which IC50 did it give?
Answer: The IC50 was 147 nM.
